Results taken from patent US20260295053A1, “COMPOUNDS FOR DEGRADATION AND INHIBITION OF KRAS (G12D) PROTEIN” (Shenzhen Ionova Life Science Co., Ltd., priority 2023, published 2026).

Assays:
KRAS (G12D) = biological target: T1, KRAS (G12D) (Homo sapiens, UniProt P01116, G12D); test: KRAS (G12D) cellular degradation assay in AsPC-1 cells; format: cell-based; conditions: 24 hours, antibody fluorescence (Odyssey CLX), DC50 half-maximal degradation concentration
T1 construct: in-cell western with KRAS G12D antibody after 24 h
T1 sequence (P01116 1-188 isoform P01116-2 G12D): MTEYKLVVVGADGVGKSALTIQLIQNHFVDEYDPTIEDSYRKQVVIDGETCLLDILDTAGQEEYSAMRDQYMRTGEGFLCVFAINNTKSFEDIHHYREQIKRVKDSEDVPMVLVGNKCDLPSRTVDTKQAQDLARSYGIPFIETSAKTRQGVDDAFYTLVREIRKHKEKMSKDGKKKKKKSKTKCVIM
Procedure, shortened: (§1)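 Read-outs were KRAS G12D immunofluorescence against β-actin after 24 h (DC50) and CellTiter Glo luminescence after 6 days (IC50). Compounds were titrated 1:3 from […] to 1.5 nM final on AsPC-1 cells at 37 °C, 5% CO2.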

AsPC-1 cells = test: AsPC-1 cell proliferation assay (CellTiter Glo); format: cell-based; conditions: Homo sapiens, ASPC1, 144 h, 6 days
Procedure, shortened: as §1

Compound | DC50 (KRAS (G12D)) [nM] | IC50 (AsPC-1 cells) [nM]
CCn1nccc1-c1ccc([C@H](CO)NC(=O)[C@@H]2C[C@@H](O)CN2C(=O)[C@H](C(C)C)n2cc(-c3ccc(COc4c(-c5c(C)c(F)cc6[nH]ncc56)c(C5CC5)cc5c(N6CCCCCC6)nc(OC[C@H](C)OC)nc45)cc3)nn2)cc1 [Example 177, (2S,4R)-1-((2S)-2-(4-(4-(((4-(azepan-1-yl)-6-cyclopropyl-7-(6-fluoro-5-methyl-1H-indazol-4-yl)-2-((S)-2-methoxypropoxy)quinazolin-8-yl)oxy)methyl)phenyl)-1H-1,2,3-triazol-1-yl)-3-methylbutanoyl)-N—((R)-1-(4-(1-ethyl-1H-pyrazol-5-yl)phenyl)-2-hydroxyethyl)-4-hydroxypyrrolidine-2-carboxamide] | 10 to 100 | 10 to 100
CO[C@@H](C)COc1nc(N2C[C@@H]3C[C@H]2CN3)c2cc(C3CC3)c(-c3c(C)c(F)cc4[nH]ncc34)c(OCc3ccc(-c4cn([C@H](C(=O)N5C[C@H](O)C[C@H]5C(=O)N[C@H](c5ccc(-c6scnc6C)cc5)[C@H](C)O)C(C)C)nn4)cc3)c2n1 [Example 82, (2S,4R)-1-((2S)-2-(4-(4-(((4-((1S,4S)-2,5-diazabicyclo[2.2.1]heptan-2-yl)-6-cyclopropyl-7-(6-fluoro-5-methyl-1H-indazol-4-yl)-2-((S)-2-methoxypropoxy)quinazolin-8-yl)oxy)methyl)phenyl)-1H-1,2,3-triazol-1-yl)-3-methylbutanoyl)-4-hydroxy-N-((1R,2S)-2-hydroxy-1-(4-(4-methylthiazol-5-yl)phenyl)propyl)pyrrolidine-2-carboxamide] | < 10 | < 10
CO[C@H]1C[C@@H](Oc2nc(N3C[C@@H]4C[C@H]3CN4)c3cc(C4CC4)c(-c4c(C)c(F)cc5[nH]ncc45)c(OCc4ccc(-c5cn([C@H](C(=O)N6C[C@H](O)C[C@H]6C(=O)N[C@H](c6ccc(-c7scnc7C)cc6)[C@H](C)O)C(C)C)nn5)cc4)c3n2)C1 [Example 135, (2S,4R)-1-((2S)-2-(4-(4-(((4-((1S,4S)-2,5-diazabicyclo[2.2.1]heptan-2-yl)-6-cyclopropyl-7-(6-fluoro-5-methyl-1H-indazol-4-yl)-2-((1s,3R)-3-methoxycyclobutoxy)quinazolin-8-yl)oxy)methyl)phenyl)-1H-1,2,3-triazol-1-yl)-3-methylbutanoyl)-4-hydroxy-N-((1R,2S)-2-hydroxy-1-(4-(4-methylthiazol-5-yl)phenyl)propyl)purrolidine-2-carboxcamide] | < 10 | < 10
